According to PMC12563681, “Cecytb-2, a Cytochrome b561 Homolog, Functions as an Ascorbate-Specific Transmembrane Ferric Reductase at Intestinal Lumens of Caenorhabditis elegans” (Biomolecules, 2025):

What was measured:
Cecytb-2 (Cecytb-2-H6) [1] = molecular target: T1, Cecytb-2 (Cecytb-2-H6) (Caenorhabditis elegans, UniProt O16271); assay: stopped-flow heme reduction at […] nm; assay type: biochemical; parameters: gene CELE_F39G3.5; full length, 251 residues, 28,127 Da native; expressed in Pichia pastoris GS115, purified from microsomes in octyl glucoside; Ser2, Ser3 at N-terminus; two b hemes; settings: electron donor; pH 7.0, 1% octyl glucoside, about 25 °C
T1 sequence (O16271 1-251): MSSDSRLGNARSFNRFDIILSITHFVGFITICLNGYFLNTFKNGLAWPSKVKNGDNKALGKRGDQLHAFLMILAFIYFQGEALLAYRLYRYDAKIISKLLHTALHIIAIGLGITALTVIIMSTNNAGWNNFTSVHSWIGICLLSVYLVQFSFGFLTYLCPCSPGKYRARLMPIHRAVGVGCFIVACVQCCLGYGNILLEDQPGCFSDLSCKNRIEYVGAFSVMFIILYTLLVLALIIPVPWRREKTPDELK

Cecytb-2 (Cecytb-2-H6) [2] = molecular target: T1, Cecytb-2 (Cecytb-2-H6); assay: pulse radiolysis, heme oxidation at […] nm; parameters: gene CELE_F39G3.5; settings: electron acceptor; 10 mM AsA present, pH 7.0, 1% octyl glucoside

SMILES	stopped-flow heme reduction at 426 nm (Cecytb-2 (Cecytb-2-H6) [1])	pulse radiolysis, heme oxidation at 435 nm (Cecytb-2 (Cecytb-2-H6) [2])
O=C1O[C@H]([C@@H](O)CO)C(O)=C1O [AsA]	second-order rate constant (k1) for the heme reduction with AsA was estimated	
[O]C1=C(O)[C@@H]([C@@H](O)CO)OC1=O [MDA radical]		heme oxidation of Cecytb-2-H6 by the generated MDA radical
